We go through 9 compounds from patent US20220298146A1, “HETEROCYCLIC DERIVATIVE AND USE THEREOF” (Transthera Sciences (Nanjing), Inc., priority 2019, published 2022).

The structures appear in SMILES notation. Like-named read-outs stand apart in the source and are kept apart here.

Data set [1] concerns the target T1, Tyro-3 (h) (Homo sapiens, UniProt Q06418).
T1 construct: purchased
T1 sequence (Q06418 41-890): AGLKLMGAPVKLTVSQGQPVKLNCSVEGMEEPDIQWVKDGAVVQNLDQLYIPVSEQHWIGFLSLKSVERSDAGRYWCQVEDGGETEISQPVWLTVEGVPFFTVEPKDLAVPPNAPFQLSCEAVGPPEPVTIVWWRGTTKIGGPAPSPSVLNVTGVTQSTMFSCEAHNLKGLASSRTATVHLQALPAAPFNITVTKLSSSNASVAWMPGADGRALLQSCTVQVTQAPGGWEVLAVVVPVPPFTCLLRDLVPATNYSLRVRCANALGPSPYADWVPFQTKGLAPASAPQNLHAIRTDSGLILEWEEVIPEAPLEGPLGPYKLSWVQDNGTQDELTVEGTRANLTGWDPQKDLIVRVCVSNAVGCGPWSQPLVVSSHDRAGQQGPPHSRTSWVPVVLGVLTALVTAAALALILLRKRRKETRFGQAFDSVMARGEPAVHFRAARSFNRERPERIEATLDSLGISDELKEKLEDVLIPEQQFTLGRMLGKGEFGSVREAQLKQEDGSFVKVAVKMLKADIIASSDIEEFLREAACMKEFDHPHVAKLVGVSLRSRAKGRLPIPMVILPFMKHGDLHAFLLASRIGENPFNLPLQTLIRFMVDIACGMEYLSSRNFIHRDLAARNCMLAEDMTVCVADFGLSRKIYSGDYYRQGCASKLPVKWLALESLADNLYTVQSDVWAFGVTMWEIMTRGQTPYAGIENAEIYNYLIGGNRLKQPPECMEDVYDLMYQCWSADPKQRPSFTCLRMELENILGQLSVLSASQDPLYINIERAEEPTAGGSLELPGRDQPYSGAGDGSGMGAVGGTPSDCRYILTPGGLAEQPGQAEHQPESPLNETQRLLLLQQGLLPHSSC
Description: Enzymatic activity assay, Tyro-3 (h) kinase, [γ-33P]-ATP. Type of data set: biochemical. The settings on record: 10 μM [γ-33P]-ATP, 40 min, room temperature; read-out: Inhibitory Activity on Tyro-3 (h), IC50. The procedure:
Test samples: the compounds of the present invention, having structures and preparation methods shown above.
(1) Preparation of Compound Stock Solutions
Compounds were each dissolved in 100% DMSO to prepare stock solutions with a maximum concentration of 500 μM.
(2) Preparation of Compound Working Solutions
The compound stock solutions were diluted to final concentrations of 500 μM, 150 μM, 50 μM, 15 μM, 5 μM, 1.5 μM, 0.5 μM, 0.15 μM and 0.05 μM to prepare compound working solutions (50×).
(3) Preparation of different enzymatic reaction solutions
Tyro3 (h) enzyme was dissolved in a mixture of 8 mM MOPS (pH 7.0), 0.2 mM EDTA, 1 mM MnCl2 and 250 μM KVEKIGEGTYGVVYK to prepare an enzyme solution with a final concentration of 38 nM. An Mg/ATP mixture of 10 mM magnesium acetate and 10 μM [γ-^33P]-ATP was used to activate the enzymatic reaction.
The compound working solutions were added to a 384-well plate, with final concentrations of 10000 nM, 3000 nM, 1000 nM, 300 nM, 100 nM, 30 nM, 10 nM, 3 nM and 1 nM, respectively, and then different enzymatic reaction solutions prepared according to the above conditions were added. The reaction solutions were incubated at room temperature for 40 min, and then 0.5% phosphoric acid solutions were added to terminate the reaction. 10 μL of the reaction solution was added dropwise to P30 filter paper which was washed 4 times with a 0.425% phosphoric acid solution and once with methanol and then placed in a scintillation counter for detection. Gray analysis was performed on the results with Image J software, and IC50 values were calculated with GraphPad 5.0 software.

A short description of data set [2]: Beagle PK evaluation experiment. In kind it is in vivo. To be noted: dog, plasma; for AUC(0-t) / clearance / Vd / half-life / Tmax: dose 1 mg/kg; for clearance: n=3, read-out: Cl_obs iv (clearance rate) (converted); for Vd: n=3, read-out: Vz_obs iv (apparent volume of distribution); for bioavailability: iv/po dose 1/1 mg/kg, n=3, read-out: F % (absolute bioavailability); for Tmax: n=3, median, read-out: Tmax po (time to maximum plasma concentration). The procedure:
Test samples: the compounds of the present invention, prepared according to exemplary methods.
Administration and Sample Collection:
Experimental compounds 11, 12 and 35 were each dissolved in a mixture of 5% DMSO+20% (30% Solutol)+75% saline to prepare solutions. The compound solutions were administrated via intragastric gavage to beagles at a dose of 1.0 mg/kg, respectively. The blood was collected at time points of 0 min, 15 min, 30 min, 1 h, 2 h, 4 h, 6 h, 8 h, 10 h and 24 h.
Experimental compounds 11, 12 and 35 were each dissolved in a mixture of 5% DMSO+20% (30% Solutol)+75% saline to prepare solutions. The compound solutions were intravenously injected into beagles at a dose of 1.0 mg/kg, respectively. The blood was collected at time points of 0 min, 5 min, 15 min, 30 min, 1 h, 2 h, 4 h, 6 h, 8 h, 10 h and 24 h. […]
Experimental compound 17 and compound 37 were each dissolved in a mixture of 5% DMSO+20% PEG400+75% (20% Captisol in Water) to prepare solutions. The compound solutions were intravenously injected into beagles at a dose of 1.0 mg/kg, respectively. The blood was collected at time points of 0 min, 5 min, 15 min, 30 min, 1 h, 2 h, 4 h, 6 h, 8 h, 10 h and 24 h. […]
Experimental compound 18 was dissolved in a mixture of 5% DMA+30% PEG400+65% (20% Captisol in Saline) to prepare a solution. The compound solution was intravenously injected into a beagle at a dose of 1.0 mg/kg. The blood was collected at time points of 0 min, 5 min, 15 min, 30 min, 1 h, 2 h, 4 h, 6 h, 8 h, 10 h and 24 h.
About 1 mL of blood was collected via the upper extremity, and the collected blood was placed in an anticoagulation tube containing EDTA-K2. The blood samples were centrifuged at 1800 g for 5 min at 4° C. to give plasma samples which were prepared within 30 min after blood collection. The plasma samples were stored in a refrigerator at −80° C. before test.
The samples to be tested were taken out from the refrigerator at −80° C., and vortexed for 5 min after naturally thawed at room temperature. 20 μL of plasma samples were each pipetted into a 1.5 mL centrifuge tube, and 200 μL of internal standard working solution (a solution of tolbutamide in methanol) at 100 ng/mL was added. The resulting mixture was mixed well, vortexed for 5 min, and then centrifuged at 12,000 rpm for 5 min. 50 μL of the supernatant was pipetted into a 96-well plate with 150 μL of water per well, and the plate was vortexed for 5 min and mixed well before LC-MS/MS analysis.
The concentrations of test samples were calculated by Analyst 1.6.3 from AB Sciex. Parameters such as mean, standard deviation and coefficient of variation (excluding those output directly by Analyst 1.6.3) were calculated by Microsoft Excel. PK parameters were calculated by Pharsight Phoenix 6.1 software NCA (Tmax was in median).

Where [3] appears, read: iv, n=3, read-out: AUClast iv (area under concentration-time curve for 0-24 h).
Setting [4] is: iv, n=3, read-out: tz1/2 iv (terminal half-life) (converted).
Setting [5] is: po (gavage), n=3, read-out: AUClast po (area under concentration-time curve for 0-24 h).
Setting [6] is: po (gavage), n=3, read-out: tz1/2 po (terminal half-life) (converted).

`Cn1cc(-c2ccc(F)cc2)c(=O)c(C(=O)Nc2ccc(Oc3ccnc(N)c3Cl)cn2)n1` [Compound 33, N-(5-((2-amino-3-chloropyridin-4-yl)oxy)pyridin-2-yl)-5-(4-fluorophenyl)-1-methyl-4-oxo-1,4-dihydropyridazine-3-carboxamide]: the 50% inhibitory concentration (IC50) – broadly, the concentration needed to halve the response being measured – in data set [1] was found to be 23 nM.

As to `CC(C)n1cc(-c2ccc(F)cc2)c(=O)c(C(=O)Nc2ncc(Oc3ccnc(N)c3Cl)cn2)n1` [Compound 12, N-(5-((2-amino-3-chloropyridin-4-yl)oxy)pyrimidin-2-yl)-5-(4-fluorophenyl)-1-isopropyl-4-oxo-1,4-dihydropyridazine-3-carboxamide], the half-inhibitory concentration (IC50) in data set [1] was 23 nM. For the same compound, the figures for the AUC(0-t) in data set [2] (setting [3]) and in data set [2] (setting [5]) were 1530 ng·h/mL and 1190 ng·h/mL, respectively. For the same compound, in data set [2] (iv), the clearance (as a rule, the rate of elimination divided by the concentration) is 10.8 mL/min/kg. Besides, the Vd in data set [2] (iv) was 1.04 L/kg. Besides, the values for the half-life in data set [2] (setting [4]) and in data set [2] (setting [6]) were 1.1 h and 1.24 h, respectively. Besides, the bioavailability in data set [2] came to 78%. Further, the Tmax in data set [2] (po (gavage)) was determined as 0.5 h.

Consider `Nc1nccc(Oc2cnc(NC(=O)c3nn(C4CC4)cc(-c4ccc(F)cc4)c3=O)nc2)c1Cl` [Compound 18, N-(5-((2-amino-3-chloropyridin-4-yl)oxy)pyrimidin-2-yl)-5-(4-fluorophenyl)-1-cyclopropyl-4-oxo-1,4-dihydropyridazine-3-carboxamide], for which the IC50 in data set [1] turned out to be 49 nM. In addition, the results for the AUC(0-t) in data set [2] (setting [3]) and in data set [2] (setting [5]) were 3730 ng·h/mL and 1090 ng·h/mL, respectively. Besides, in data set [2] (iv), the clearance is 4.83 mL/min/kg. The Vd in data set [2] (iv) came out at 0.65 L/kg. In addition, the results for the half-life in data set [2] (setting [4]) and in data set [2] (setting [6]) were 1.54 h and 2 h, respectively. Besides, the bioavailability in data set [2] was found to be 29.7%. In addition, the Tmax in data set [2] (po (gavage)) turned out to be 1 h.

On to `Nc1nccc(Oc2ccc(NC(=O)c3nn(C4CC4)cc(-c4ccc(F)cc4)c3=O)nc2)c1Cl` [Compound 17, N-(5-((2-amino-3-chloropyridin-4-yl)oxy)pyridin-2-yl)-1-cyclopropyl-5-(4-fluorophenyl)-4-oxo-1,4-dihydropyridazine-3-carboxamide], for which the 50% inhibitory concentration (IC50) in data set [1] was 31 nM. The AUC(0-t) came out at 3360 ng·h/mL in data set [2] (setting [3]) and 3670 ng·h/mL in data set [2] (setting [5]). The clearance in data set [2] (iv) is 5 mL/min/kg. For the same compound, the Vd in data set [2] (iv) worked out at 3.16 L/kg. Further, the half-life in data set [2] (setting [4]) is 7.46 h; in data set [2] (setting [6]) it was 13.6 h. For the same compound, the bioavailability in data set [2] turned out to be 109%. For the same compound, in data set [2] (po (gavage)), the Tmax was 1 h.

With `C=CCn1cc(-c2ccc(F)cc2)c(=O)c(C(=O)Nc2ncc(Oc3ccnc(N)c3Cl)cn2)n1` [Compound 37], in data set [1], the concentration for half-maximal inhibition (IC50) came out at 22 nM. The figures for the AUC(0-t) in data set [2] (setting [3]) and in data set [2] (setting [5]) were 2600 ng·h/mL and 1830 ng·h/mL, respectively. Besides, the clearance in data set [2] (iv) was 6.83 mL/min/kg. The Vd in data set [2] (iv) was determined as 1.07 L/kg. The half-life in data set [2] (setting [4]) was 1.79 h; in data set [2] (setting [6]), 1.88 h. The bioavailability in data set [2] came to 70.6%. Further, the Tmax in data set [2] (po (gavage)) worked out at 0.5 h.

In the case of `Nc1nccc(Oc2ccc(NC(=O)c3nn(C4CC4)cc(-c4ccc(F)cc4)c3=O)cn2)c1Cl` [Compound 19, N-(6-((2-amino-3-chloropyridin-4-yl)oxy)pyridin-3-yl)-1-cyclopropyl-5-(4-fluorophenyl)-4-oxo-1,4-dihydropyridazine-3-carboxamide], in data set [1], the IC50 worked out at 73 nM.

As for `CC(C)n1cc(-c2ccc(F)cc2)c(=O)c(C(=O)Nc2ccc(Oc3ccnc(N)c3Cl)nc2)n1` [Compound 13, N-(6-((2-amino-3-chloropyridin-4-yl)oxy)pyridin-3-yl)-5-(4-fluorophenyl)-1-isopropyl-4-oxo-1,4-dihydropyridazine-3-carboxamide], the IC50 in data set [1] stood at 39 nM.

Consider `C=CCn1cc(-c2ccc(F)cc2)c(=O)c(C(=O)Nc2ccc(Oc3ccnc(N)c3Cl)nc2)n1` [Compound 39, 1-allyl-N-(6-((2-amino-3-chloropyridin-4-yl)oxy)pyridin-3-yl)-5-(4-fluorophenyl)-4-oxo-1,4-dihydropyridazine-3-carboxamide], for which the IC50 in data set [1] is 28 nM.

In the case of `C=CCn1cc(-c2ccc(F)cc2)c(=O)c(C(=O)Nc2ccc(Oc3ccnc(N)c3Cl)cn2)n1` [Compound 35, 1-allyl-N-(5-((2-amino-3-chloropyridin-4-yl)oxy)pyridin-2-yl)-5-(4-fluorophenyl)-4-oxo-1,4-dihydropyridazine-3-carboxamide], the IC50 in data set [1] worked out at 24 nM. Further, the AUC(0-t) amounted to 4120 ng·h/mL in data set [2] (setting [3]) and 2200 ng·h/mL in data set [2] (setting [5]). In data set [2] (iv), the clearance was 3.83 mL/min/kg. Also, the Vd in data set [2] (iv) turned out to be 3.16 L/kg. In addition, the half-life in data set [2] (setting [4]) was 9.32 h; in data set [2] (setting [6]), 4.01 h. Besides, the bioavailability in data set [2] stood at 50.7%. Also, the Tmax in data set [2] (po (gavage)) was 1 h.
